In patent publication US9365583B2, “Substituted pyrazoles and uses thereof” (Genentech, Inc., priority 2013, dated 2016) one finds Ki data, which are given here for 20 compounds.

The target in this assay is T1, N-terminally GST-tagged DLK (catalytic domain amino acid 1-520) (Homo sapiens, UniProt Q12852).
T1 construct: N-terminally GST-tagged DLK (catalytic domain amino acid 1-520); purchased Carna Bioscience
T1 sequence (Q12852 1-520): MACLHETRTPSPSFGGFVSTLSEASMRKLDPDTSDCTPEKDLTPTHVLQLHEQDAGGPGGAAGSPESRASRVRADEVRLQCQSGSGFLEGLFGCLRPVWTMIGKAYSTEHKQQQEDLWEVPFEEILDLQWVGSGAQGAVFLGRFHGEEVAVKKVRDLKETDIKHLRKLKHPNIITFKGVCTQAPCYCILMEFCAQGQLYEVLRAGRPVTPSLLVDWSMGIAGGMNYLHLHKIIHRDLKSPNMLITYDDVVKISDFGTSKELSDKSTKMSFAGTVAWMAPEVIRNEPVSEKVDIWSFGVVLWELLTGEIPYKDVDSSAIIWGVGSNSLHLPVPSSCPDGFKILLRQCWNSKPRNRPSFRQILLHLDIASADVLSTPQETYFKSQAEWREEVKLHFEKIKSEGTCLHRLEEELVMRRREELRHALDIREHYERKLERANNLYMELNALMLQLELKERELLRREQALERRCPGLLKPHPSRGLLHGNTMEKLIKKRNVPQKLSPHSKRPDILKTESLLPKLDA
The experiment in a line: DLK TR-FRET inhibition assay. The class given is biochemical. The settings on record: 5 nM GST-DLK, 40 nM HIS-MKK4 K131M substrate, 30 μM ATP, 60 minutes at ambient temperature. The procedure:
DLK TR-FRET inhibition assay: DLK kinase reactions (20 μL) containing 5 nM N-terminally GST-tagged DLK (catalytic domain amino acid 1-520) (Carna Bioscience), 40 nM N-terminally HIS-tagged MKK4 K131M substrate, and 30 μM ATP in kinase reaction buffer (50 mM HEPES, pH 7.5, 0.01% Triton X-100, 0.01% Bovine γ-Globulins, 2 mM DTT, 10 mM MgCl2 and 1 mM EGTA), and testing compound 1:3 serial diluted starting at 20 uM were incubated at ambient temperature for 60 minutes in 384 well OptiPlate (Perkin Elmer). To quench kinase reactions and detect phosphorylated MKK4, 15 μL of TR-FRET antibody mixture containing 2 nM anti-phosphorylated MKK4 labeled with Europium cryptate (Cisbio) and 23 nM anti-HIS labeled with D2 (Cisbio) in detection buffer (25 mM Tris pH 7.5, 100 mM NaCl, 100 mM EDTA, 0.01% Tween-20, and 200 mM KF) was added to the reaction mixture. The detection mixture was incubated for 3 hours at ambient temperature and the TR-FRET was detected with an EnVision multilabel plate reader (Perkin-Elmer) using the LANCE/DELFIA Dual Enh label from Perkin-Elmer (excitation filter: UV2 (TRF) 320 and emission filters: APC 665 and Europium 615).
On the technique in general: Time-resolved FRET reads energy transfer from a long-lived donor to a nearby acceptor.
Usually Ki stands for the dissociation constant of the complex between target and ligand, obtained from inhibition or displacement. A lower Ki goes with tighter binding. As for `CC(C)n1nc(-c2cnc(N)c(C(F)(F)F)c2)cc1[C@@H]1[C@H]2CC[C@@H](N3CCOCC3)[C@H]21` (single isomer, unassigned) [compound 139, 5-(1-isopropyl-5-(2-morpholinobicyclo[3.1.0]hexan-6-yl)-1H-pyrazol-3-yl)-3-(trifluoromethyl) pyridin-2-amine], the Ki turned out to be 65.7 nM.

For `CC(C)n1nc(-c2cnc(N)c(OC(F)(F)F)c2)cc1[C@H]1[C@@H]2C[C@H](N3CC(F)C3)C[C@@H]21` [compound 29, 5-(5-((1R,3r,5S,6r)-3-(3-fluoro-azetidin-1-yl)bicyclo[3.1.0]hexan-6-yl)-1-isopropyl-1H-pyrazol-3-yl)-3-(trifluoromethoxy) pyridin-2-amine], the Ki stood at 2.83 nM. Against the preceding compound, the Ki is about 23-fold lower.

`COC1CN([C@@H]2C[C@@H]3[C@H](C2)[C@H]3c2cc(-c3cnc(N)c(OC(F)F)c3)nn2C(C)C)C1` [compound 62, 3-(difIuoromethoxy)-5-(1-isopropyl-5-((1R,3s,5S,6r)-3-(3-methoxy-azetidin-1-yl)bicyclo[3.1.0]hexan-6-yl)-1H-pyrazol-3-yl) pyridin-2-amine] returned a Ki of 2.73 nM. The Ki values of the last two compounds are within 1.5-fold of each other.

On to `Nc1ncc(-c2cc([C@H]3[C@@H]4C[C@H](N5CCOCC5)C[C@@H]43)nn2C2CCC2)cc1OC(F)F` [compound 132, 5-(1-cyclobutyl-3-((1R,3r,5S,6r)-3-morpholinobicyclo[3.1.0]hexan-6-yl)-1H-pyrazol-5-yl)-3-(difluoromethoxy)pyridin-2-amine], for which the affinity, expressed as Ki, was 258 nM.

`CC(C)n1nc(-c2cnc(N)c(OC(F)F)c2)cc1[C@H]1[C@@H]2C[C@@H](N3CCN4CCCC4C3)C[C@@H]21` (single isomer, unassigned) [compound 259]: the Ki turned out to be 0.7 nM.

For the compound `CC(C)n1nc(-c2cnc(N)c(C(F)(F)F)c2)cc1[C@H]1[C@@H]2CC(C#N)C[C@@H]21` (single isomer, unassigned) [compound 190], the inhibitory constant (Ki) came out at 4.8 nM.

On to `CC(C)n1nc(-c2cnc(N)c(C(F)(F)F)c2)cc1[C@H]1[C@@H]2C[C@@H](N(C)C)C[C@@H]21` [compound 189, 5-(5-((1R,3s,5S,6r)-3-(dimethylamino)bicyclo[3.1.0]hexan-6-yl)-1-isopropyl-1H-pyrazol-3-yl)-3-(trifluoromethyl)pyridin-2-amine], for which the Ki stood at 2.9 nM.

On to `CC(C)n1nc(-c2cnc(N)c(OC(F)(F)F)c2)cc1[C@H]1[C@@H]2C[C@H](N3CCCOCC3)C[C@@H]21` [compound 101, 5-(5-((1R,3r,5S,6r)-3-(1,4-oxazepan-4-yl)bicyclo[3.1.0]hexan-6-yl)-1-isopropyl-1H-pyrazol-3-yl)-3-(trifluoromethoxy)pyridin-2-amine], for which the inhibition constant Ki worked out at 0.44 nM.

Take `Nc1ncc(-c2cc([C@H]3[C@@H]4C[C@@H](N5CCOCC5)C[C@@H]43)n(C3CCCC3)n2)cc1OC(F)F` [compound 130, 5-(1-cyclopentyl-5-((1R,3s,5S,6r)-3-morpholinobicyclo[3.1.0]hexan-6-yl)-1H-pyrazol-3-yl)-3-(difluoromethoxy)pyridin-2-amine]: the affinity corresponds to a Ki of 4.82 nM.

On to `CC(C)n1nc(-c2cnc(N)c(OC(F)F)c2)cc1[C@H]1[C@@H]2C[C@H](N3CC4(CN(C)CCO4)C3)C[C@@H]21` [compound 228, 3-(difluoromethoxy)-5-(1-isopropyl-5-((1R,3r,5S,6r)-3-(8-methyl-5-oxa-2,8-diazaspiro[3.5]nonan-2-yl)bicyclo[3.1.0]hexan-6-yl)-1H-pyrazol-3-yl)pyridin-2-amine], for which the affinity corresponds to a Ki of 2.8 nM.

Compound `CC(C)n1nc(-c2cnc3ccn([C@H](C)c4ccccn4)c3c2)cc1[C@H]1[C@@H]2C[C@@H](N3CCOCC3)C[C@@H]21` [compound 25, 4-((1R,3S,5S,6r)-6-(1-isopropyl-3-(1-((R)-1-(pyridin-2-yl)ethyl)-1H-pyrrolo[3,2-b]pyridin-6-yl)-1H-pyrazol-5-yl)bicyclo[3.1.0]hexan-3-yl)morpholine] gave a Ki of 70.6 nM.

In turn, `COC1CCN([C@@H]2C[C@@H]3[C@H](C2)[C@H]3c2cc(-c3cnc(N)c(C(F)(F)F)c3)nn2C(C)C)CC1` [compound 249, 5-(1-isopropyl-5-((1R,3s,5S,6r)-3-(4-methoxypiperidin-1-yl)bicyclo[3.1.0]hexan-6-yl)-1H-pyrazol-3-yl)-3-(trifluoromethyl) pyridin-2-amine] displayed a Ki of 2.6 nM.

Compound `CO[C@H]1CCN([C@H]2C[C@@H]3[C@H](C2)[C@H]3c2cc(-c3cnc(N)c(OC(F)F)c3)nn2CC2CC2)C1` [compound 158, 5-(1-(cyclopropylmcthyl)-5-((1R,3r,5S,6S)-3-((S)-3-methoxy-pyrrolidin-1-yl)bicyclo[3.1.0]hexan-6-yl)-1H-pyrazol-3-yl)-3-(difluoromethoxy)pyridin-2-amine] displayed a Ki of 1.2 nM.

As for “5-(1-isopropyl-5-((1R,3s,5S,6R)- 3-((R)-2-methylmorpholino) bicyclo[3.1.0]hexan-6-yl)-1H- pyrazol-3-yl)-3-(trifluoromethoxy) pyridin-2-amine [compound 11]”, the affinity corresponds to a Ki of 1.87 nM.

The compound `CC(C)n1nc(-c2cnc(N)c(C(F)(F)F)c2)cc1[C@@H]1[C@H]2CC[C@H](O)[C@H]21` (single isomer, unassigned) [compound 142, 6-(3-(6-amino-5-trifluoromethylpyridin-3-yl)-1-isopropyl-1H-pyrazol-5-yl)bicyclo[3.1.0]hexan-2-ol] yielded a Ki of 62.2 nM.

The compound `CC(C)n1nc(-c2cnc(N)c(OC(F)F)c2)cc1[C@H]1[C@@H]2C[C@@H](N3CCO[C@H](C)C3)C[C@@H]21` [compound 74, 3-(difluoromethoxy)-5-(1-isopropyl-5-((1R,3s,5S,6R)-3-((R)-2-methylmorpholino)bicyclo[3.1.0]hexan-6-yl)-1H-pyrazol-3-yl) pyridin-2-amine] showed a Ki of 3.75 nM.

Compound `CC(=O)N(C)[C@H]1C[C@@H]2[C@H](C1)[C@H]2c1cc(-c2cnc(N)c(C(F)(F)F)c2)nn1C(C)C` [compound 182, N-((1R,5S,6r)-6-(3-(6-amino-5-(trifluoromethyl)pyridin-3-yl)-1-isopropyl-1H-pyrazol-5-yl)bicyclo [3.1.0]hexan-3-yl)-N-methylacetamide] returned a Ki of 3 nM.

Compound `COC1CN([C@H]2C[C@@H]3[C@H](C2)[C@H]3c2cc(-c3cnc(N)c(OC(F)F)c3)nn2CC2CC2)C1` [compound 154, 5-(1-(cyclopropylmethyl)-5-((1R,3r,5S,6r)-3-(3-methoxyazetidin-1-yl)bicyclo[3.1.0]hexan-6-yl)-1H-pyrazol-3-yl)-3-(difluoromethoxy)pyridin-2-amine] returned a Ki of 0.7 nM.

As to `CC(C)n1nc(-c2cnc(N)c(C(F)(F)F)c2)cc1[C@H]1[C@@H]2C[C@@H](N)C[C@@H]21` [compound 276, 5-(5-((1R,3s,5S,6r)-3-aminobicyclo [3.1.0]hexan-6-yl)-1-isopropyl-1H-pyrazol-3-yl)-3-(trifluoro-methyl)pyridin-2-amine], the affinity, expressed as Ki, was 1.8 nM.

For `CC(C)n1nc(-c2cnc(N)c(C(F)(F)F)c2)cc1[C@H]1[C@@H]2C[C@H](N3CCO[C@@H](C)C3)C[C@@H]21` [compound 108, 5-(1-isopropyl-5-((1R,3r,5S,6S)-3-((S)-2-methylmorpholino)bicyclo[3.1.0]hexan-6-yl)-1H-pyrazol-3-yl)-3-(trifluoromethyl) pyridin-2-amine], the Ki worked out at 1.6 nM.
